Values after ≈ are worked out from the molar mass of the structure shown.
Columns and labels:
Assay type in all cases: cell-based
[1] = tested on: Staphylococcus aureus 256E; experiment: In vitro antibacterial activity against resistant strains (MIC); conditions: resistant strain Staphylococcus aureus 256E; 2-fold agar dilution; methicillin resistant strains 48 hours at 30° C.; read-out: minimum inhibitory concentration (MIC)
Method: (§1) 10^7 cfu/ml of bacteria were inoculated and cultured for 18 hours at 37° C. and then the antibacterial activities were measured. For the methicillin resistant strains the activities were measured after 48 hours of cultivation at 30° C. Hoechst Standard strains were used for the testings.

[2] = tested on: Staphylococcus aureus 179; experiment: as above; conditions: resistant strain Staphylococcus aureus 179; 2-fold agar dilution; methicillin resistant strains 48 hours at 30° C.; read-out: minimum inhibitory concentration (MIC)
Method: as §1

[3] = tested on: Staphylococcus aureus 293; experiment: as above; conditions: resistant strain Staphylococcus aureus 293; 2-fold agar dilution; methicillin resistant strains 48 hours at 30° C.; read-out: minimum inhibitory concentration (MIC)
Method: as §1

[4] = tested on: Staphylococcus aureus 303; experiment: as above; conditions: resistant strain Staphylococcus aureus 303; 2-fold agar dilution; methicillin resistant strains 48 hours at 30° C.; read-out: minimum inhibitory concentration (MIC)
Method: as §1

[5] = tested on: Staphylococcus aureus 208E; experiment: as above; conditions: resistant strain Staphylococcus aureus 208E; 2-fold agar dilution; methicillin resistant strains 48 hours at 30° C.; read-out: minimum inhibitory concentration (MIC)
Method: as §1

[6] = tested on: Staphylococcus aureus 121E; experiment: as above; conditions: resistant strain Staphylococcus aureus 121E; 2-fold agar dilution; methicillin resistant strains 48 hours at 30° C.; read-out: minimum inhibitory concentration (MIC)
Method: as §1

[7] = tested on: Staphylococcus epidermidis 178; experiment: as above; conditions: resistant strain Staphylococcus epidermidis 178; 2-fold agar dilution; methicillin resistant strains 48 hours at 30° C.; read-out: minimum inhibitory concentration (MIC)
Method: as §1

[8] = tested on: Staphylococcus aureus 690E; experiment: as above; conditions: resistant strain Staphylococcus aureus 690E; 2-fold agar dilution; methicillin resistant strains 48 hours at 30° C.; read-out: minimum inhibitory concentration (MIC)
Method: as §1

[9] = tested on: Staphylococcus aureus 701E; experiment: as above; conditions: resistant strain Staphylococcus aureus 701E; 2-fold agar dilution; methicillin resistant strains 48 hours at 30° C.; read-out: minimum inhibitory concentration (MIC)
Method: as §1

[10] = tested on: Staphylococcus aureus 694E; experiment: as above; conditions: resistant strain Staphylococcus aureus 694E; 2-fold agar dilution; methicillin resistant strains 48 hours at 30° C.; read-out: minimum inhibitory concentration (MIC)
Method: as §1

[11] = tested on: Staphylococcus aureus 8236; experiment: as above; conditions: resistant strain Staphylococcus aureus 8236; 2-fold agar dilution; methicillin resistant strains 48 hours at 30° C.; read-out: minimum inhibitory concentration (MIC)
Method: as §1

[12] = tested on: Staphylococcus aureus 88E; experiment: as above; conditions: resistant strain Staphylococcus aureus 88E; 2-fold agar dilution; methicillin resistant strains 48 hours at 30° C.; read-out: minimum inhibitory concentration (MIC)
Method: as §1

[13] = tested on: Staphylococcus aureus 697E; experiment: as above; conditions: resistant strain Staphylococcus aureus 697E; 2-fold agar dilution; methicillin resistant strains 48 hours at 30° C.; read-out: minimum inhibitory concentration (MIC)
Method: as §1

[14] = tested on: Staphylococcus aureus 241; experiment: as above; conditions: resistant strain Staphylococcus aureus 241; 2-fold agar dilution; methicillin resistant strains 48 hours at 30° C.; read-out: minimum inhibitory concentration (MIC)
Method: as §1

[15] = tested on: Staphylococcus aureus 692E; experiment: as above; conditions: resistant strain Staphylococcus aureus 692E; 2-fold agar dilution; methicillin resistant strains 48 hours at 30° C.; read-out: minimum inhibitory concentration (MIC)
Method: as §1

[16] = tested on: Staphylococcus aureus 703E; experiment: as above; conditions: resistant strain Staphylococcus aureus 703E; 2-fold agar dilution; methicillin resistant strains 48 hours at 30° C.; read-out: minimum inhibitory concentration (MIC)
Method: as §1

[17] = tested on: Staphylococcus aureus 695E; experiment: as above; conditions: resistant strain Staphylococcus aureus 695E; 2-fold agar dilution; methicillin resistant strains 48 hours at 30° C.; read-out: minimum inhibitory concentration (MIC)
Method: as §1

[18] = tested on: Staphylococcus aureus 693E; experiment: as above; conditions: resistant strain Staphylococcus aureus 693E; 2-fold agar dilution; methicillin resistant strains 48 hours at 30° C.; read-out: minimum inhibitory concentration (MIC)
Method: as §1

[19] = tested on: Staphylococcus epidermidis 291; experiment: as above; conditions: resistant strain Staphylococcus epidermidis 291; 2-fold agar dilution; methicillin resistant strains 48 hours at 30° C.; read-out: minimum inhibitory concentration (MIC)
Method: as §1

[20] = tested on: Pseudomonas aeruginosa 1592E; experiment: In vitro antibacterial activity (MIC), agar dilution; conditions: 2-fold agar dilution, Muller-Hinton agar, 18 hours at 37° C., read-out: minimum inhibitory concentration (MIC)
Method: as §1

[21] = tested on: Esherichia coli 078; experiment: as above; conditions: 2-fold agar dilution, Muller-Hinton agar, 18 hours at 37° C., read-out: minimum inhibitory concentration (MIC)
Method: as §1

[22] = tested on: Streptococcus pyogens 77A; experiment: as above; conditions: 2-fold agar dilution, Muller-Hinton agar, 18 hours at 37° C., read-out: minimum inhibitory concentration (MIC)
Method: as §1

[23] = tested on: Pseudomonas aeruginosa 9027; experiment: as above; conditions: 2-fold agar dilution, Muller-Hinton agar, 18 hours at 37° C., read-out: minimum inhibitory concentration (MIC)
Method: as §1

[24] = tested on: Pseudomonas aeruginosa 1771M; experiment: as above; conditions: Pseudomonas aeruginosa, 1771M, 18 h, read-out: minimum inhibitory concentration (MIC)
Method: as §1

[25] = tested on: Salmonella typhimurium; experiment: as above; conditions: Salmonella enterica, 2-fold agar dilution, Muller-Hinton agar, 18 hours at 37° C., read-out: minimum inhibitory concentration (MIC)
Method: as §1

[26] = tested on: Staphylococcus aureus SG511; experiment: as above; conditions: 2-fold agar dilution, Muller-Hinton agar, 18 hours at 37° C., read-out: minimum inhibitory concentration (MIC)
Method: as §1

[27] = tested on: Esherichia coli DC0; experiment: as above; conditions: 2-fold agar dilution, Muller-Hinton agar, 18 hours at 37° C., read-out: minimum inhibitory concentration (MIC)
Method: as §1

[28] = tested on: Pseudomonas aeruginosa 1771; experiment: as above; conditions: 2-fold agar dilution, Muller-Hinton agar, 18 hours at 37° C., read-out: minimum inhibitory concentration (MIC)
Method: as §1

[29] = tested on: Streptococcus pyogens 308A; experiment: as above; conditions: 2-fold agar dilution, Muller-Hinton agar, 18 hours at 37° C., read-out: minimum inhibitory concentration (MIC)
Method: as §1

[30] = tested on: Esherichia coli DC2; experiment: as above; conditions: 2-fold agar dilution, Muller-Hinton agar, 18 hours at 37° C., read-out: minimum inhibitory concentration (MIC)
Method: as §1

[31] = tested on: Esherichia coli TEM; experiment: as above; conditions: 2-fold agar dilution, Muller-Hinton agar, 18 hours at 37° C., read-out: minimum inhibitory concentration (MIC)
Method: as §1

[32] = tested on: Streptococcus faecium MD 8b; experiment: as above; conditions: Enterococcus faecium, MD8B, 2-fold agar dilution, Muller-Hinton agar, 18 hours at 37° C., read-out: minimum inhibitory concentration (MIC)
Method: as §1

[33] = tested on: Staphylococcus aureus 285; experiment: as above; conditions: 2-fold agar dilution, Muller-Hinton agar, 18 hours at 37° C., read-out: minimum inhibitory concentration (MIC)
Method: as §1

[34] = tested on: Klebsiella aerogenes 1522E; experiment: as above; conditions: 2-fold agar dilution, Muller-Hinton agar, 18 hours at 37° C., read-out: minimum inhibitory concentration (MIC)
Method: as §1

[35] = tested on: Esherichia coli 1507E; experiment: as above; conditions: 2-fold agar dilution, Muller-Hinton agar, 18 hours at 37° C., read-out: minimum inhibitory concentration (MIC)
Method: as §1

[36] = tested on: Staphylococcus aureus 503; experiment: as above; conditions: 2-fold agar dilution, Muller-Hinton agar, 18 hours at 37° C., read-out: minimum inhibitory concentration (MIC)
Method: as §1

[37] = tested on: Klebsiella oxytoca 1082E; experiment: as above; conditions: 2-fold agar dilution, Muller-Hinton agar, 18 hours at 37° C., read-out: minimum inhibitory concentration (MIC)
Method: as §1

For O=C(O)c1cn(C2CC2)c2cc(N3CCNCC3)c(F)cc2c1=O [Ciprofloxacin, ciprofloxacin, reference compound], the MIC [1] was 0.781 µg/mL (≈ 2.36 µM), the MIC [2] was 12.5 µg/mL (≈ 37.7 µM) and the MIC [3] was 12.5 µg/mL (≈ 37.7 µM). It also gave an MIC [4] of 12.5 µg/mL (≈ 37.7 µM), an MIC [5] of 0.781 µg/mL (≈ 2.36 µM) and an MIC [6] of 0.781 µg/mL (≈ 2.36 µM). It also gave an MIC [7] of 50 µg/mL (≈ 151 µM), an MIC [8] of 0.391 µg/mL (≈ 1.18 µM) and an MIC [9] of 0.391 µg/mL (≈ 1.18 µM). The MIC [10] was 0.391 µg/mL (≈ 1.18 µM), the MIC [11] was 12.5 µg/mL (≈ 37.7 µM) and the MIC [12] was 0.781 µg/mL (≈ 2.36 µM). It also gave an MIC [13] of 0.391 µg/mL (≈ 1.18 µM), an MIC [14] of 12.5 µg/mL (≈ 37.7 µM) and an MIC [15] of 0.391 µg/mL (≈ 1.18 µM). For the same molecule, the MIC [16] was 0.391 µg/mL (≈ 1.18 µM), the MIC [17] was 0.391 µg/mL (≈ 1.18 µM) and the MIC [18] was 0.391 µg/mL (≈ 1.18 µM). The MIC [19] was 50 µg/mL (≈ 151 µM), the MIC [20] was 0.195 µg/mL (≈ 0.589 µM) and the MIC [21] was 0.004 µg/mL (≈ 0.0121 µM). For the same molecule, the MIC [22] was 0.781 µg/mL (≈ 2.36 µM), the MIC [23] was 0.195 µg/mL (≈ 0.589 µM) and the MIC [24] was 0.049 µg/mL (≈ 0.148 µM). It also gave an MIC [25] of 0.007 µg/mL (≈ 0.0211 µM), an MIC [26] of 0.195 µg/mL (≈ 0.589 µM) and an MIC [27] of 0.195 µg/mL (≈ 0.589 µM). It also gave an MIC [28] of 0.195 µg/mL (≈ 0.589 µM), an MIC [29] of 3.12 µg/mL (≈ 9.43 µM) and an MIC [30] of 0.049 µg/mL (≈ 0.148 µM). The MIC [31] was 0.007 µg/mL (≈ 0.0211 µM), the MIC [32] was 0.391 µg/mL (≈ 1.18 µM) and the MIC [33] was 0.781 µg/mL (≈ 2.36 µM). The MIC [34] was 0.013 µg/mL (≈ 0.0392 µM), the MIC [35] was 0.007 µg/mL (≈ 0.0211 µM) and the MIC [36] was 0.391 µg/mL (≈ 1.18 µM). It also gave an MIC [37] of less than 0.002 µg/mL.

From patent US6552196B2, “Quinolone carboxylic acid derivatives” (Dong Wha Pharmaceutical Industrial Co., Ltd., priority 1997, dated 2003)
